One assay deals with Estrogen receptor beta (Homo sapiens, UniProt Q92731).
A short description of assay [1]: Cytotoxicity against human TK10 cells assessed as cell growth at 10^-7 M after 48 hrs by SRB assay. In kind it is functional. The settings on record: TK-10, 48 h, read-out: Activity.
For assay [2], the system named is HT-29. Nature of the assay: Cytotoxicity against human HT-29 cells assessed as cell growth at 10^-7 M after 48 hrs by SRB assay. In kind it is functional. The settings on record: HT-29, 48 h, read-out: Activity. (In SRB staining, fixed cells bind dye roughly in proportion to their protein.)
Assay [3] deals with NCI-H522. In words: Cytotoxicity against human NCI-H522 cells assessed as cell growth at 10^-8 M after 48 hrs by SRB assay. The settings on record: NCI-H522, 48 h, read-out: Activity. In kind it is functional.
Assay [4] can be described thus: Cytotoxicity against human RXF393 cells assessed as cell growth at 10^-8 M after 48 hrs by SRB assay. The note with it: RXF 393, 48 h, read-out: Activity. It is filed as functional.
The next assay has as its system ACHN. In words: Cytotoxicity against human ACHN cells assessed as cell growth at 10^-7 M after 48 hrs by SRB assay. It is filed as functional. The note with it: read-out: Activity.
Assay [5] in a line: Cytotoxicity against human HL-60(TB) cells assessed as cell growth at 10^-6 M after 48 hrs by SRB assay. It is filed as functional. The settings on record: HL-60, 48 h, read-out: Activity.
A further assay has as its system NCI-H322M. In words: Cytotoxicity against human NCI-H322M cells assessed as cell growth at 10^-4 M after 48 hrs by SRB assay. It is filed as functional. The note with it: read-out: Activity.
Assay [6] relates to NCI-H522. In words: Cytotoxicity against human NCI-H522 cells assessed as cell growth at 10^-5 M after 48 hrs by SRB assay. The settings on record: NCI-H522, 48 h, read-out: Activity. It is filed as functional.
A further assay concerns SK-MEL-5. Nature of the assay: Cytotoxicity against human SK-MEL-5 cells assessed as cell growth at 10^-5 M after 48 hrs by SRB assay. It is filed as functional. The settings on record: SK-MEL-5, 48 h, read-out: Activity.
For assay [7], the system named is EKVX. Nature of the assay: Cytotoxicity against human EKVX cells assessed as cell growth at 10^-7 M after 48 hrs by SRB assay. In kind it is functional. The note with it: read-out: Activity.
Assay [8] can be described thus: Cytotoxicity against human SF539 cells assessed as cell growth at 10^-7 M after 48 hrs by SRB assay. In kind it is functional. The note with it: SF-539, 48 h, read-out: Activity.
A short description of assay [9]: Cytotoxicity against human PC3 cells assessed as cell growth at 10^-6 M after 48 hrs by SRB assay. It is filed as functional. The note with it: PC-3, 48 h, read-out: Activity.
Assay [10] can be described thus: Cytotoxicity against human MOLT4 cells assessed as cell growth at 10^-6 M after 48 hrs by SRB assay. It is filed as functional. The settings on record: MOLT-4, 48 h, read-out: Activity.
A short description of assay [11]: Cytotoxicity against human HOP62 cells assessed as cell growth at 10^-4 M after 48 hrs by SRB assay. In kind it is functional. The note with it: HOP-62, 48 h, read-out: Activity.
Assay [12] is described as follows: Cytotoxicity against human PC3 cells assessed as cell growth at 10^-8 M after 48 hrs by SRB assay. In kind it is functional. The settings on record: PC-3, 48 h, read-out: Activity.
Assay [13] deals with K562. Nature of the assay: Cytotoxicity against human K562 cells assessed as cell growth at 10^-7 M after 48 hrs by SRB assay. The note with it: K562, 48 h, read-out: Activity. In kind it is functional.
In assay [14] the test system is EKVX. Nature of the assay: Cytotoxicity against human EKVX cells assessed as cell growth at 10^-5 M after 48 hrs by SRB assay. It is filed as functional. The settings on record: read-out: Activity.
Assay [15] relates to SN12C. In words: Cytotoxicity against human SN12C cells assessed as cell growth at 10^-7 M after 48 hrs by SRB assay. In kind it is functional. The settings on record: read-out: Activity.
The nature of assay [16]: Cytotoxicity against human SF268 cells assessed as cell growth at 10^-5 M after 48 hrs by SRB assay. The note with it: SF-268, 48 h, read-out: Activity. It is filed as functional.
Assay [17] is described as follows: Cytotoxicity against human COLO205 cells assessed as cell growth at 10^-4 M after 48 hrs by SRB assay. It is filed as functional. The note with it: COLO 205, 48 h, read-out: Activity.
A short description of assay [18]: Cytotoxicity against human HCC2998 cells assessed as cell growth at 50 uM after 48 hrs by SRB assay. In kind it is functional. The note with it: HCC 2998, 48 h, read-out: Activity.
Assay [19] deals with K562. Nature of the assay: Cytotoxicity against human K562 cells assessed as cell growth at 5 nM after 48 hrs by SRB assay. It is filed as functional. The settings on record: K562, 48 h, read-out: Activity.
Assay [20] is described as follows: Cytotoxicity against human HCT15 cells assessed as cell growth at 0.5 uM after 48 hrs by SRB assay. It is filed as functional. The settings on record: HCT-15, 48 h, read-out: Activity.
Assay [21] is described as follows: Cytotoxicity against human HOP92 cells assessed as cell growth at 50 uM after 48 hrs by SRB assay. It is filed as functional. The note with it: HOP-92, 48 h, read-out: Activity.
For assay [22], the system named is K562. Nature of the assay: Cytotoxicity against human K562 cells assessed as cell growth at 50 uM after 48 hrs by SRB assay. The note with it: K562, 48 h, read-out: Activity. It is filed as functional.
For the next assay, the system named is SK-MEL-2. In words: Cytotoxicity against human SK-MEL-2 cells assessed as cell growth at 50 uM after 48 hrs by SRB assay. The settings on record: SK-MEL-2, 48 h, read-out: Activity. It is filed as functional.
Assay [23] is described as follows: Cytotoxicity against human NCI-ADR-RES cells assessed as cell growth at 50 uM after 48 hrs by SRB assay. The settings on record: read-out: Activity. It is filed as functional.
In assay [24] the test system is HT-29. In words: Cytotoxicity against human HT-29 cells assessed as cell growth at 0.5 uM after 48 hrs by SRB assay. The note with it: HT-29, 48 h, read-out: Activity. In kind it is functional.
Assay [25] is described as follows: Cytotoxicity against human DU145 cells assessed as cell growth at 5 nM after 48 hrs by SRB assay. In kind it is functional. The note with it: DU-145, 48 h, read-out: Activity.
Assay [26] concerns NCI-H522. In words: Cytotoxicity against human NCI-H522 cells assessed as cell growth at 50 uM after 48 hrs by SRB assay. It is filed as functional. The note with it: NCI-H522, 48 h, read-out: Activity.
The nature of assay [27]: Cytotoxicity against human SNB19 cells assessed as cell growth at 5 uM after 48 hrs by SRB assay. It is filed as functional. The note with it: SNB-19, 48 h, read-out: Activity.
In another assay the test system is NCI-H460. In words: Cytotoxicity against human NCI-H460 cells assessed as cell growth at 50 uM after 48 hrs by SRB assay. The settings on record: NCI-H460, 48 h, read-out: Activity. In kind it is functional.
The next assay has as its system T47D. Nature of the assay: Cytotoxicity against human T47D cells assessed as cell growth at 50 nM after 48 hrs by SRB assay. In kind it is functional. The note with it: read-out: Activity.
The nature of assay [28]: Cytotoxicity against human RPMI8226 cells assessed as cell growth at 0.5 uM after 48 hrs by SRB assay. It is filed as functional. The note with it: RPMI-8226, 48 h, read-out: Activity.
Assay [29] deals with EKVX. Nature of the assay: Cytotoxicity against human EKVX cells assessed as cell growth at 0.5 uM after 48 hrs by SRB assay. The note with it: read-out: Activity. It is filed as functional.
Assay [30] can be described thus: Cytotoxicity against human LOXIMVI cells assessed as cell growth at 5 nM after 48 hrs by SRB assay. In kind it is functional. The note with it: LOX IMVI, read-out: Activity.
In the next assay the test system is CCRF-CEM. In words: Cytotoxicity against human CCRF-CEM cells assessed as cell growth at 50 uM after 48 hrs by SRB assay. The note with it: read-out: Activity. It is filed as functional.
Assay [31] is described as follows: Cytotoxicity against human SNB75 cells assessed as cell growth at 5 nM after 48 hrs by SRB assay. It is filed as functional. The note with it: SNB-75, 48 h, read-out: Activity.
For assay [32], the system named is SN12C. Nature of the assay: Cytotoxicity against human SN12C cells assessed as cell growth at 5 nM after 48 hrs by SRB assay. It is filed as functional. The settings on record: read-out: Activity.
Assay [33] is described as follows: Cytotoxicity against human SF268 cells assessed as cell growth at 0.5 uM after 48 hrs by SRB assay. It is filed as functional. The settings on record: SF-268, 48 h, read-out: Activity.
The nature of assay [34]: Cytotoxicity against human RPMI8226 cells assessed as cell growth at 5 uM after 48 hrs by SRB assay. In kind it is functional. The settings on record: RPMI-8226, 48 h, read-out: Activity.
Assay [35] can be described thus: Cytotoxicity against human PC3 cells assessed as cell growth at 5 uM after 48 hrs by SRB assay. In kind it is functional. The note with it: PC-3, 48 h, read-out: Activity.

Estrogen receptor beta, sequence (Q92731 whole entry): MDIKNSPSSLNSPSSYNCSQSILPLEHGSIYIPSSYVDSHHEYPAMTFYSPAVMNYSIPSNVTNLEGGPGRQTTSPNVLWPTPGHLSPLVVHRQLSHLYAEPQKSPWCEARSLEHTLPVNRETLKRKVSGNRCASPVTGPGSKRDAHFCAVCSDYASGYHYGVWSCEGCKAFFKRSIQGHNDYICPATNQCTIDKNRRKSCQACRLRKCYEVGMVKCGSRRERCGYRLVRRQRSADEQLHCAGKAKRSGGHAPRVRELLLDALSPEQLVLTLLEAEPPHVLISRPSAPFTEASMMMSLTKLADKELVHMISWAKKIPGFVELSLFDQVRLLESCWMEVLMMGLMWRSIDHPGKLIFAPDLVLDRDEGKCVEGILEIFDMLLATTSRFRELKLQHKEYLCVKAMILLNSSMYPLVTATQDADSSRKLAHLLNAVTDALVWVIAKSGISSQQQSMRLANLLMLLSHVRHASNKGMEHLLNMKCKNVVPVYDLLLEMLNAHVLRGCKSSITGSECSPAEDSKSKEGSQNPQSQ
Description for Estrogen receptor beta: Displacement of [3H]-E2 from human ER-beta incubated for 16 to 20 hrs by liquid scintillation counting analysis

On to `C/C(=C(/c1ccc(O)cc1)c1ccc(OCCN2CCCC2)cc1)c1ccccc1`, for which the 50% inhibitory concentration (IC50) on Estrogen receptor beta stood at 40 nM. The growth at 0.1 µM in assay [1] worked out at 94%; in the assay on HT-29 [2], 97%; with ACHN, 97%; with EKVX [7] it was 93%; in assay [8], 101%; with K562 [13] it was 96%. Also, the growth at 0.1 µM with SN12C [15] stood at 104%. In addition, the growth at 0.01 µM in the assay on NCI-H522 [3] came out at 88%; in assay [4] it was 96%; in assay [12], 104%. Also, the growth at 1 µM was 90% in assay [5], 103% in assay [9] and 92% in [10]. Moreover, the growth at 100 µM in the assay with NCI-H322M was -91%; in [11], -86%; in assay [17], -82%. The growth at 10 µM in the assay with NCI-H522 [6] was -38%; with SK-MEL-5, -99%; in the assay on EKVX [14], 6%; in assay [16] it was 37%.
For `CCCCCCCCCC(=O)Oc1ccc(/C(=C(/C)c2ccccc2)c2ccc(OCCN3CCCC3)cc2)cc1`, the growth at 50 µM is -77% in assay [18]; -75% in [21]; -70% in the assay on K562 [22]; -79% in the assay on SK-MEL-2; -73% in [23]; -74% in the assay with NCI-H522 [26]. Moreover, the growth at 50 µM in the assay on NCI-H460 was -91%; in the assay with CCRF-CEM it was -47%. For the same molecule, the growth at 0.005 µM in the assay on K562 [19] is 100%; in assay [25] it was 102%; in assay [30], 97%; in [31] it was 88%; in the assay on SN12C [32] it was 102%. Moreover, the growth at 0.5 µM came out at 58% in assay [20]; 12% in the assay on HT-29 [24]; 61% in [28]; 78% with EKVX [29]; 73% in assay [33]. Moreover, the growth at 5 µM in assay [27] worked out at 94%; in assay [34], 86%; in assay [35] it was 89%. Moreover, the growth at 0.05 µM in the assay on T47D was 62%.

As a reminder, the IC50 is the point on the concentration scale where inhibition reaches its midpoint.

The record behind these values is ChEMBL document CHEMBL3774317, “Design and synthesis of novel tamoxifen analogues that avoid CYP2D6 metabolism” (Eur J Med Chem, 2016).
